How the values were obtained:
Aromatase [1] = target: T1, Aromatase (Homo sapiens, UniProt P11511); assay: Binding affinity(KI) for formation of reversible enzyme-ligand complex with human placental aromatase (PL2)
T1 sequence (P11511 whole entry): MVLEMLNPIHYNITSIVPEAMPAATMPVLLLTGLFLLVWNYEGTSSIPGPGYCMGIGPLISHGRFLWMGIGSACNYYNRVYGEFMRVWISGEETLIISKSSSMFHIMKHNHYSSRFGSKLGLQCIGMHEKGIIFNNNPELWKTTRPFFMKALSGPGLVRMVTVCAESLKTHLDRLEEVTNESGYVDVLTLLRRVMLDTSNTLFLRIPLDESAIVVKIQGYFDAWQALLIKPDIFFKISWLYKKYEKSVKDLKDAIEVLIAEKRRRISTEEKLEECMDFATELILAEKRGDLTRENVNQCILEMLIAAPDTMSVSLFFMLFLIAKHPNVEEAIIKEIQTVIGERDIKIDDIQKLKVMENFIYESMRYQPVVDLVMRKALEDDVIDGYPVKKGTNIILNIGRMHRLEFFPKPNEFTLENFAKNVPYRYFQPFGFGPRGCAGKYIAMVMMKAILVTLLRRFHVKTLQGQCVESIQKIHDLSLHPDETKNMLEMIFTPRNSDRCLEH

Aromatase [2] = target: T1, Aromatase; assay: Catalytic constant (Kcat) for reversible enzyme-ligand complex formation with human placental aromatase (PL2)
Aromatase [3] = target: T1, Aromatase; assay: Maximum absorbance for formation of reversible-enzyme-ligand complexes with human placental aromatase (PL1)
Aromatase [4] = target: T1, Aromatase; assay: Dithiothreitol ([…]) reactivation of human placental aromatase following 1.0 uM inactivation for 5 minutes; settings: read-out: Activity remaning
Aromatase [5] = target: T1, Aromatase; assay: Binding affinity constant for formation of reversible enzyme-ligand complex with human placental aromatase (PL1); settings: read-out: Ks
Aromatase [6] = target: T1, Aromatase; assay: Binding affinity for formation of reversible enzyme-ligand complexes with human placental aromatase (PL2)
Aromatase [7] = target: T1, Aromatase; assay: Dithiothreitol ([…]) reactivation of human placental aromatase following 1.0 uM inactivation for 10 minutes; settings: read-out: Activity remaning

SMILES	Ki (Aromatase [1])	k cat (Aromatase [2])	Activity (Aromatase [3])	activity at 1 µM (Aromatase [4])	Kd (Aromatase [5])	Ki (Aromatase [6])	activity at 1 µM (Aromatase [7])
C[C@]12CCC(=O)C(O)=C1CC[C@@H]1[C@@H]2CC[C@]2(C)C(=O)CC[C@@H]12 [FORMESTANE]	542 nM	0.008 *10e-3	0.162 Amax nM-1	43%	324 nM	–	–
C[C@]12CCC3C(CCC4=CC(=O)CC[C@@]43CS)C1CCC2=O (stereo not given in full)	–	0.0025	0.179 Amax nM-1	60%	–	47 nM	–
OC(CS)C(O)CS (stereo not drawn) [DL-DITHIOTHREITOL]	–	–	–	97%	–	–	84%
CC12CCC3C(CC=C4CC(=O)CCC43CO)C1CCC2=O (stereo not given)	–	–	0.125 Amax nM-1	–	368 nM	–	–
C[C@]12C[C@@H](S)C(=O)C=C1CCC1C2CC[C@]2(C)C(=O)CCC12.OC(CS)C(O)CS (stereo not given in full)	–	–	–	–	–	–	74%
C[C@]12CCC3C(CCC4=CC(=O)CC[C@@]43S)C1CCC2=O (stereo not given in full)	28 nM	0.0043	0.187 Amax nM-1	50%	144 nM	–	–
C[C@]12CCC3C(CCC4=CC(=O)CC[C@@]43CS)C1CCC2=O.OC(CS)C(O)CS (stereo not given in full)	–	–	–	59%	–	–	–
C#CC[C@]12CCC(=O)C=C1CC[C@@H]1[C@@H]2CC[C@]2(C)C(=O)CC[C@@H]12 [PLOMESTANE]	6.2 nM	0.0007	0.191 Amax nM-1	–	213 nM	–	65%
C[C@]12C[C@@H](S)C(=O)C=C1CCC1C2CC[C@]2(C)C(=O)CCC12 (stereo not given in full)	3100 nM	0.002	0.169 Amax nM-1	–	602 nM	–	75%
C[C@]12CCC(=O)C=C1CC[C@@H]1[C@@H]2CC[C@]2(C)C(=O)CC[C@@H]12 [ANDROSTENEDIONE]	–	–	0.177 Amax nM-1	–	105 nM	–	–
C[C@]12CCC(=O)C(O)=C1CCC1C2CC[C@]2(C)C(=O)CCC12.OC(CS)C(O)CS (stereo not given in full)	–	–	–	41%	–	–	–
C[C@]12CC[C@H]3[C@@H](CCC4=CC(=O)CC[C@@]43C)[C@@H]1CC[C@@H]2O [TESTOSTERONE]	–	–	0.166 Amax nM-1	–	–	–	–
C#CC[C@]12CCC(=O)C=C1CCC1C2CC[C@]2(C)C(=O)CCC12.OC(CS)C(O)CS (stereo not given in full)	–	–	–	–	–	–	63%
C[C@]12CCC3C(CCC4=CC(=O)CC[C@@]43S)C1CC[C@@H]2O (stereo not given in full)	100 nM	0.004	0.167 Amax nM-1	–	785 nM	–	–
C[C@]12CCC3C(CCC4=CC(=O)CC[C@@]43S)C1CCC2=O.OC(CS)C(O)CS (stereo not given in full)	–	–	–	48%	–	–	–

Reference: ChEMBL document CHEMBL1124325, “Interactions of thiol-containing androgens with human placental aromatase” (J Med Chem, 1989)
